Source: patent US20240041804A1, “NHE-1 INHIBITORS FOR THE TREATMENT OF CORONAVIRUS INFECTIONS” (priority 2020, published 2024)
Entries after “also recorded” stand apart in the source; their conditions may differ. Read-outs that look alike come from different tables or passages of the source.

Key:
[1] = biological target: SARS-CoV envelope protein ion channels (SARS-CoV E protein) (Severe acute respiratory syndrome coronavirus, UniProt P59637); details: cited from earlier work
LPS induced lung injury = details: amiloride pretreatment 10 mg/kg intravenous injection, rats; cited from earlier work
[2] = tested on: store-operated calcium entry (SOCE); assay: Store-operated calcium entry (45Ca2+ accumulation) in myotubes; type: cell-based
human platelet swelling = assay: In vitro platelet swelling assay with human platelet rich plasma; type: cell-based; details: OD 680 nm, pH 6.6, read-out: IC50 of inhibition of platelet swelling (+SEM)
NHE-1 = biological target: T1, NHE-1 (Mus musculus, UniProt Q61165); assay: 22Na+ influx in myotube cultures; type: cell-based
T1 construct: time-course of ^22Na^+ influx studied in wild type and dystrophic myotube cultures; endogenous in cells; host or cells: primary wild type and dystrophic myotubes
T1 sequence (Q61165 whole entry): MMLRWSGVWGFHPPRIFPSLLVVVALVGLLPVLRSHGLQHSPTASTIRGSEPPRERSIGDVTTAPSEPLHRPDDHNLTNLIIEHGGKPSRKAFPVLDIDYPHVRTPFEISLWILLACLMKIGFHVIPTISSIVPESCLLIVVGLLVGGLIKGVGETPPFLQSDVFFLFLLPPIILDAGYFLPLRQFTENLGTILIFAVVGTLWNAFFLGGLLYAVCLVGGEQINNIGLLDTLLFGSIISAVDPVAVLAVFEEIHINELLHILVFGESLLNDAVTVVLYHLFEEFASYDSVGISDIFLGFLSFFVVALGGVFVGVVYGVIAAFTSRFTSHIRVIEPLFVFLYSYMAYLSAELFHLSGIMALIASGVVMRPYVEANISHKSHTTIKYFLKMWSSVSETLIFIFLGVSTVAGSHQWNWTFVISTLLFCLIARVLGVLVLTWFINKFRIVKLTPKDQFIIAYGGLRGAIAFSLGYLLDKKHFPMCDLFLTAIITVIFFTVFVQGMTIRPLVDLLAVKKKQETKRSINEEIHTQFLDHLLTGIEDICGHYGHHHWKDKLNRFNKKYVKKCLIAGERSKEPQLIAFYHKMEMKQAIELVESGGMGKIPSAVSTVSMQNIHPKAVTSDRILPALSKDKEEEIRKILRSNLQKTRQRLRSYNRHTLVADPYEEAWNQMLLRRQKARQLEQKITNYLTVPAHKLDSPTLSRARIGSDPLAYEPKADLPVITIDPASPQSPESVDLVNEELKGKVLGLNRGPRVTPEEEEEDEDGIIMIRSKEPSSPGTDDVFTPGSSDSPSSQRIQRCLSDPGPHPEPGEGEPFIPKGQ

platelet swelling [3] = assay: Ex vivo platelet swelling, Eniporide phase I studies in healthy subjects; design: species or system human
[4] = tested on: rat model of myocardial infarction; assay: Rat model of myocardial infarction (30 min occlusion, 90 min reperfusion); type: in vivo; details: prophylactic, 0.01 to 1 mg/kg intravenously and 0.1 to 1 mg/kg per os
Su/Hx rat model of PAH [5] = assay: Su/Hx rat model of PAH: right ventricle hypertrophy and fibrosis; type: in vivo; details: 100 mg/kg/day in drinking water week 5-8; Su/Hx+Rime vs Su/Hx, week 8
platelet swelling [6] = assay: Ex vivo platelet swelling, Rimeporide multiple ascending dose study; type: in vivo, human; details: day 3, multiple ascending dose study
Su/Hx rat model of PAH [7] = assay: Su/Hx rat model of PAH: echocardiography; type: in vivo; details: 100 mg/kg/day in drinking water week 5-8; Su/Hx+Rime vs Su/Hx, week 8
dystrophic, mdx mice = assay: Fibrosis in heart and diaphragm of mdx mice; type: in vivo, mouse; details: given in a preventive manner
[8] = biological target: T2, sodium-hydrogen exchange activity (NHE-1) (Rattus norvegicus, UniProt P26431); assay: NHE activity (BCECF) in rat pulmonary arterial smooth muscle cells; type: cell-based; details: PASMCs of Su/Hx pulmonary hypertension rats, 10^-6 to 10^-4 M
T2 construct: performed in rat PASMCs in vitro of both Normoxic and Su/Hx pulmonary hypertension (PH) rats; endogenous in cells; host or cells: primary rat PASMCs from normoxic and Su/Hx pulmonary hypertension rats
T2 sequence (P26431 whole entry): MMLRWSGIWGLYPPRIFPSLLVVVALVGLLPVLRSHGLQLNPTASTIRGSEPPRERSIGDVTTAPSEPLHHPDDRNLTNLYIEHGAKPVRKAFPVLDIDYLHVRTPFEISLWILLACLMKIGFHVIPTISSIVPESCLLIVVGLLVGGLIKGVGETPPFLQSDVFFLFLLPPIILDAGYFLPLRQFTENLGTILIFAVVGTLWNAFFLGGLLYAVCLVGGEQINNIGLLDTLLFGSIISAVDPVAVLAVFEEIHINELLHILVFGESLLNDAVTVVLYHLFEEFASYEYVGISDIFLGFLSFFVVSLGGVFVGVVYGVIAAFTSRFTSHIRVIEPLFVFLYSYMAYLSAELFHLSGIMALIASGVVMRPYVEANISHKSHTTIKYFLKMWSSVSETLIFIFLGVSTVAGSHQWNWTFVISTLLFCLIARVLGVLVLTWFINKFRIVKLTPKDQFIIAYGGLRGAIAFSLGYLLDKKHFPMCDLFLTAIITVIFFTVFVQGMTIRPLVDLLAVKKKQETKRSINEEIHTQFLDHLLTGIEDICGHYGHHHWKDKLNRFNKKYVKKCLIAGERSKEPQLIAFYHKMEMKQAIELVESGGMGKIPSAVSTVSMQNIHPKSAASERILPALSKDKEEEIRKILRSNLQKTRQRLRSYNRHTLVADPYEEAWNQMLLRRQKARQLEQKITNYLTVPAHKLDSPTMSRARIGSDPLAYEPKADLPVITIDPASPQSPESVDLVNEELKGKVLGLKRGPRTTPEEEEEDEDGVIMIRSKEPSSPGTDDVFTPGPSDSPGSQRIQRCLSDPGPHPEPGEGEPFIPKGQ

Su/Hx rat model of PAH [9] = assay: Su/Hx rat model of PAH: pulmonary vascular fibrosis (Masson trichome); type: in vivo; details: 100 mg/kg/day in drinking water week 5-8; Su/Hx+Rime vs Su/Hx, week 8
[10] = tested on: plasma circulating biomarkers (CCL15, KLK6, FAS, TNFα, MCP-1/CCL2); design: Term, TNFα: unit not given here; details: DMD patients, 4-week oral treatment, cited from earlier work
[11] = single oral dose
[12] = tested on: pigs of myocardial infarction; assay: Anesthetized open-chest pig model of myocardial infarction; type: in vivo; details: 1 mg/kg iv before occlusion, 7 mg/kg iv before reperfusion
[13] = tested on: rat model of heart failure; assay: Rat model of heart failure after myocardial infarction (permanent left coronary artery ligation); type: in vivo
male mdx mice [14] = assay: Ex vivo H&E histopathology of diaphragm inflammation in mdx mice; design: species or system mouse; details: 400 ppm Rimeporide
Su/Hx rat model of PAH [15] = assay: Su/Hx rat model of PAH: lung inflammation (CD68); type: in vivo; details: 100 mg/kg/day in drinking water week 5-8; Su/Hx+Rime vs Su/Hx, week 8
male mdx mice [16] = assay: Cathepsin enzyme activity by optical imaging (skeletal muscle inflammation) in mdx mice; type: in vivo, mouse; details: 400 ppm Rimeporide in food, 5 weeks
platelet swelling [17] = assay: Ex vivo platelet swelling, Rimeporide single oral ascending dose study; type: in vivo, human; details: single oral dose 300 to 600 mg, healthy male volunteers
Su/Hx rat model of PAH [18] = assay: Su/Hx rat model of PAH: invasive hemodynamic monitoring; type: in vivo; details: 100 mg/kg/day in drinking water week 5-8; Su/Hx+Rime vs Su/Hx, week 8

Sequence of SARS-CoV envelope protein ion channels (SARS-CoV E protein) (P59637 whole entry, looked up): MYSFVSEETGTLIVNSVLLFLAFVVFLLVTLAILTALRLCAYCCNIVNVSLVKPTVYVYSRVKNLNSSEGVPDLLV

NC(N)=NC(=O)c1nc(Cl)c(N)nc1N [Amiloride, 3,5-Diamino-N-carbamimidoyl-6-chlorpyrazin-2-carbamid]
effect on activity of E-proteins (ion channel) [1]: quasi-ineffective | LPS induced lung injury (LPS induced lung injury): significantly inhibited

Cc1nnsc1C(=O)Nc1ccc(-n2nc(C(F)(F)F)cc2C(F)(F)F)cc1 [BTP-2, reference compound]
effect on store-operated calcium entry (SOCE) [2]: abolished | inhibition of Ca2+ flux (SOCE protocol) ([2]; 10 μM): almost complete inhibition

CC(C)c1ccc(C(=O)NC(=N)N)cc1S(C)(=O)=O [Cariporide, N-(Diaminomethylidene)-3-methanesulfonyl-4-(propan-2-yl) benzamide]
comparison of NHE inhibitors on SOCE (rank order) [2]: Zoniporide>Cariporide, EIPA>Rimeporide | IC50 (human platelet swelling): 166 nM | comparison of NHE inhibitors on 22Na+ fluxes (rank order) (NHE-1): Zoniporide>Cariporide, EIPA>Rimeporide

CCN(c1nc(N)c(C(=O)N=C(N)N)nc1Cl)C(C)C [EIPA, 5-(N-ethyl-N-isopropyl)amiloride, reference compound]
comparison of NHE inhibitors on SOCE (rank order) ([2]; myotubes): Zoniporide>Cariporide, EIPA>Rimeporide | comparison of NHE inhibitors on 22Na+ fluxes (rank order) (NHE-1; myotubes): Zoniporide>Cariporide, EIPA>Rimeporide

Cc1cc(-n2cccc2)c(S(C)(=O)=O)cc1C(=O)NC(=N)N [Eniporide, N-(diaminomethylidene)-2-methyl-5-methylsulfonyl-4-pyrrol-1-ylbenzamide]
inhibition of platelet swelling immediately post dosing (platelet swelling [3]; 50 mg and above, intravenous): total inhibition | inhibitory activity on platelet swelling (platelet swelling [3]; 2 times 200 mg as an infusion, 6 hours post first dose): 80% | inhibitory activity on platelet swelling remaining (platelet swelling [3]; 1.5 hours post dose, doses 100-200 mg): More than 80% | inhibitory activity on platelet swelling remaining (platelet swelling [3]; 3 hours post dose, doses 250-400 mg): More than 80% | dose from which platelet swelling was reduced (platelet swelling [3]; healthy subjects, single intravenous dose): ≥ 5 mg | IC50 (human platelet swelling): 30 nM | effects on PT or APTT (human, in vivo): no clinically relevant effects | effect on platelet aggregation (platelet aggregation; human, in vivo): No clinically relevant effect

NC(N)=NC(=O)c1nc(Cl)c(N2CCCCCC2)nc1N [HMA, 5-N, N-(hexamethylene)amiloride]
effect on activity of E-proteins (ion channel) [1]: significantly reduced activity of E-proteins

Cc1cc(S(C)(=O)=O)c(S(C)(=O)=O)cc1C(=O)NC(=N)N [Rimeporide, N-(4,5-bismethanesulfonyl-2-methylbenzoyl)guanidine]
infarct size [4]: reduce dose dependent infarct size | RV fibrosis (Sirius Red) (Su/Hx rat model of PAH [5]): significantly lower fibrosis | Right Ventricle/Left Ventricle+Septum (RV/LV+S) weight ratio (Su/Hx rat model of PAH [5]): no statistically significant difference | subjects with some evidence of platelet swelling inhibition (platelet swelling [6]): 67% | Mean Pulmonary Arterial Pressure (mPAP) (Su/Hx rat model of PAH [7]): significantly lower mPAP | Pulmonary Artery Acceleration Time/Ejection Time (PA AT/ET) (Su/Hx rat model of PAH [7]): significantly higher PA AT/ET ratio | RV cardiac output (CO) (Su/Hx rat model of PAH [7]): significantly higher RV CO | RV free wall thickness (Su/Hx rat model of PAH [7]): significantly lower RV free wall thickness | RV internal diameter at diastole (Su/Hx rat model of PAH [7]): significantly lower RV internal diameter | fibrosis in the heart and the diaphragm (dystrophic, mdx mice): antifibrotic effect | effect on NHE activity in PASMCs [8]: inhibits NHE activity in the PASMCs in a dose-dependent manner | pulmonary vascular fibrosis (Su/Hx rat model of PAH [9]): significantly lower fibrosis | Term, TNFα ([10]; Luminex): −0.1726 | Term, CCL15 ([10]; OLink): −0.4489 | Term, FAS ([10]; OLink): −0.2823 | Term, KLK6 ([10]; OLink): −0.2612 | Term, MCP-1/CCL2 ([10]; OLink): −0.5675 | plasma concentration, Subject 15 ([11]; 1 hour post-dose): 159 ng/mL | plasma concentration, Subject 15 ([11]; 3 hours post-dose): 3690 ng/mL | infarct size [12]: decrease infarct size | myocardial hypertrophy and left ventricular function [13]: significantly and dose dependently reduce myocardial hypertrophy and preserve left ventricular function | survival [13]: substantial improvement in survival | reduction in inflammation in the diaphragm (H&E) relative to vehicle (male mdx mice [14]): 44% | effect on store-operated calcium entry (SOCE) [2]: inhibition of SOCE; also recorded: dose-dependently prevented SOCE | concentration giving strong SOCE inhibition reaching basal levels ([2]; dystrophic myotubes): 30 µM | lowest concentration with statistical differences in SOCE inhibition ([2]; dystrophic myotubes): 3 µM | comparison of NHE inhibitors on SOCE (rank order) ([2]; myotubes): weakest inhibitor | IC50 (human platelet swelling): 455 nM | effects on PT and APTT (Rimeporide single oral dose study): No effects | effect on platelet aggregation (platelet aggregation; Rimeporide single oral dose, 10 μM ADP, 3, 24 and 48 hours post-dose): no evidence of inhibition of platelet aggregation | percentage of CD68+ cells relative to total nuclei in lung tissue (Su/Hx rat model of PAH [15]): significantly lower | reduction in Cathepsin B activity, forelimb (male mdx mice [16]; forelimb): −26% | reduction in Cathepsin B activity, hindlimb (male mdx mice [16]; hindlimb): −22% | rate constant of platelet swelling reaction post-dose vs pre-dose (platelet swelling [17]): post-dose decrease in rate constant was consistently observed | RV End Diastolic Pressure (EDP) (Su/Hx rat model of PAH [18]): significantly lower pressure | RV Tau (Su/Hx rat model of PAH [18]): significantly lower Tau | RV systolic pressure (Su/Hx rat model of PAH [18]): significantly lower pressure | inhibition at 100 µM (NHE-1; 100 μM, after 10 to 20 min of influx, myotube cultures, read-out: inhibition of 22Na+ accumulation / Na+ influx): ~40% | comparison of NHE inhibitors on 22Na+ fluxes (rank order) (NHE-1; myotubes): weakest inhibitor | effect on 22Na+ accumulation (NHE-1; pretreatment 1-100 μM, normal and dystrophic myotubes): dose-dependent inhibition

N=C(N)NC(=O)c1cnn(-c2cccc3ncccc23)c1C1CC1 [Zoniporide, reference compound]
comparison of NHE inhibitors on SOCE (rank order) [2]: Zoniporide>Cariporide, EIPA>Rimeporide | comparison of NHE inhibitors on 22Na+ fluxes (rank order) (NHE-1; myotubes): Zoniporide>Cariporide, EIPA>Rimeporide

NC1=N[C@H](O)[C@H]2[C@H]3O[C@]4(O)O[C@@H]([C@@H](O)[C@@]2(N1)[C@@H]4O)[C@]3(O)CO [tetrodotoxin]
further decrease of 22Na+ influx (NHE-1): around 8%
